According to patent US9636299B2, “Method for treating diabetic retinopathy” (XAVIER UNIVERSITY OF LOUISIANA, priority 2012, dated 2017):
Residues, ends and D or L forms follow the SMILES beside them.

Assays:
[1] = system: MMP9; test: MMP9 expression in high glucose-treated hRMECs (Western blot); format: cell-based, human; conditions: 30 mM glucose 72 hours, 50 or 100 μM apoEdp
Description: Cell Culture. Primary cultures of human retina microvascular endothelial cells (hRMECs) were purchased from the Applied Cell Biology Research Institute and grown on attachment factor-coated plates in cell systems complete (CSC) medium (Cell Systems, Kirkland, Wash.) supplemented with 20% fetal bovine serum, culture boost (animal derived growth factors) and bac-off (antibiotics). The primary hRMECs were used in their passages 4 to 6. The 18-a.a. apoE mimetic peptide apoEdp (SEQ ID NO:3, Ac-LRKLRKRLLLRKLRKRLL-amide), derived from the human apolipoprotein E receptor-binding region (see SED ID NO:1) between residues 141 and 149, was synthesized (Genemed, Arlington, Tex.) with a purity of greater than 95%. The apoEdp peptide was dissolved in phosphate-buffered saline (“PBS”) at a concentration appropriate for further experimental use. […]
Western Blotting. […] The total protein concentration was determined using a BCA protein assay kit (Pierce, Rockford, Ill.). […] To ensure the equal loading of protein in each lane, each membrane was stripped and re-probed with an antibody against β-actin, and the chemiluminescence was detected as described previously. After scanning the blots with a flatbed scanner, band intensities were analyzed using ImageJ (NIH) and the relative intensity values were normalized to control values. […]

[2] = system: LRP-1; test: LRP-1 expression in high sugar induced hRMECs (Western blot); format: cell-based, human; conditions: high sugar induced serum starved hRMECs, 1% apoEdp, 24 hours
Procedure: Using an anti-LRP-1 antibody (human LRP-1; 1:1000, Santa Cruz Biotechnology, CA) and Western blot analysis, selective inhibition of LRP-1 by apoEdp treatment (24 hours) in serum starved hRMECs cells was shown.

[3] = system: MMP2; test: Laser photocoagulation-induced retinal injury in mice, MMP2 real-time RT-PCR; format: in vivo, mouse; conditions: apoEdp 40 mg/kg intraperitoneally once each day for 7 days, vs mice without apoEdp
Procedure: (§1) Laser Photocoagulation-Induced Retinopathy. Female mice (C57BL/6J), aged 6-8 weeks, were used for retinal laser photocoagulation studies. The mice were treated and maintained in accordance with the ARVO Statement for the Use of Animals in Ophthalmic and Vision Research. The mice were anesthetized by intraperitoneal injection of a mixture of ketamine (100 mg/kg; Warner Lambert Co., Morris Plains, N.J.) and xylazine (10 mg/kg; Bayer AG, Leverkusen, Germany), and the pupils dilated with 2.5% tropicamide (Alcon, Fort Worth, Tex.). […]
(§2) RNA Extraction, Reverse Transcription, & PCR. […] Gene expression was measured at RNA level per 100 ng of total RNA using one-step RT-PCR kit (Bio-Rad, Hercules, Calif.). Four host genes (mouse GAPDH, mouse MMP2, mouse HPSE-1 (heparanase-1), and mouse MMP9) were analyzed to confirm relative quantitative expression levels. The primer pairs used were specifically designed and synthesized by Qiagen GmbH, Hilden, Germany (Quantitech Primer assay kit, for each host gene, catalog numbers QT01658692, QT00088396, QT00009555, and QT00040040, respectively). One-step Real-time quantitative RT-PCR reactions were performed in a 50-μL volume containing a solution of 1× supermix (iQ SYBR Green; Bio-Rad, Hercules, Calif.), 1 μM mix of forward and reverse primers, and 5 μL total RNA. […] Relative quantitative expression levels were determined for each gene. […]

[4] = system: heparanase; test: Laser photocoagulation-induced retinal injury in mice, heparanase real-time RT-PCR; format: in vivo, mouse; conditions: apoEdp 40 mg/kg intraperitoneally once each day for 7 days, vs mice without apoEdp
Procedure: as §1, §2

CC(=O)N[C@@H](CC(C)C)C(=O)N[C@@H](CCCNC(=N)N)C(=O)N[C@@H](CCCCN)C(=O)N[C@@H](CC(C)C)C(=O)N[C@@H](CCCNC(=N)N)C(=O)N[C@@H](CCCCN)C(=O)N[C@@H](CCCNC(=N)N)C(=O)N[C@@H](CC(C)C)C(=O)N[C@@H](CC(C)C)C(=O)N[C@@H](CC(C)C)C(=O)N[C@@H](CCCNC(=N)N)C(=O)N[C@@H](CCCCN)C(=O)N[C@@H](CC(C)C)C(=O)N[C@@H](CCCNC(=N)N)C(=O)N[C@@H](CCCCN)C(=O)N[C@@H](CCCNC(=N)N)C(=O)N[C@@H](CC(C)C)C(=O)N[C@@H](CC(C)C)C(N)=O [apoEdp, Ac-LRKLRKRLLLRKLRKRLL-amide] (Ac-LRKLRKRLLLRKLRKRLL-NH2)
High glucose-induced expression of MMP9 [1]: suppressed the expression
Upregulation of LRP-1 [2]: inhibiting the upregulation
Expression of MMP2 in retina [3]: dramatically reduced
Expression of heparanase in retina [4]: dramatically reduced
